{
  "source": "patent US7390870B2",
  "about": "“Immune-enhancing peptides” (Posco, priority 2001, dated 2008)",
  "key": {"human monocytes": {"tested_on": "human monocytes", "assay": "[Ca2+]i rise in human monocytes (fura-2/AM)", "type": "cell-based", "description": "(§1) The level of [Ca^2+]i was determined by Grynkiewicz's method using fura-2/AM (21). Briefly, prepared cells were incubated with 3 μM fura-2/AM at 37° C. for 50 minutes in a fresh serum-free RPMI 1640 medium under continuous stirring. 2×10^6 cells were aliquoted for each assay in Ca^2+-free Locke's solution (154 mM NaCl, 5.6 mM KCl1.2 mM MgCl2, 5 mM HEPES, pH 7.3, 10 mM glucose, and 0.2 mM EGTA). The fluorescence changes at the dual excitation wavelengths of 340 nm and 380 nm and the emission wavelength of 500 nm were measured, and the calibrated fluorescence ratio was translated into [Ca^2+]i.\nMany extracellular agonists that stimulate superoxide generation in human phagocytic cells involve intracellular calcium rise (23). In this example, the effect of the peptides on the [Ca^2+]i of monocytes were tested. The results are shown FIG. 3. The data of FIG. 3 are presented as means ±S.E. of four independent experiments. *P<0.01 versus vehicle treatment.\nFura-2-loaded monocytes were stimulated with an effective concentration of HFYLPM (1 μM), MFYLPM (1 μM), HFYLPm (100 nM), and LFMYHP (10 μM). The change in 340 nm/380 nm was monitored. The cells were stimulated with various concentrations of each peptide. The peak level of the increase in [Ca^2+]i was monitored. […] The results of A of FIG. 3 are representative of 6 independent experiments. […]"}, "[1]": {"tested_on": "Jurkat human T cell leukemia cells", "assay": "[Ca2+]i increase in Jurkat cells (fura-2)", "type": "cell-based", "settings": "FIG. 4A; MFYLPM up to 30 μM", "description": "as §1\n(§2) From the fact that HFYLPM, MFYLPM, and HFYLPm stimulate human monocytes, effects of the peptides on other leukocytes such as neutrophils were evaluated. Prepared human primary monocytes, neutrophils, cultured HL60, Jurkat, U937, NIH3T3, 3Y1, 3T3L1, and PC12 cells were loaded with fura-2 and stimulated with effective concentrations of the three peptides (1 μM for monocyte and neutrophil; 10 μM for HL60 and Jurkat; 20 μM for U937, NIH3T3, 3Y1, 3T3L1, and PC12). The peak level of the [Ca^2+]i increase was recorded and superoxide generation was measured using cytochrome c reduction assay. The results are shown FIG. 4. The data of FIG. 4 are presented as means ±S.E. from at least three independent experiments."}, "[2]": {"tested_on": "HL60 human promyelocytic cells", "assay": "[Ca2+]i increase in undifferentiated HL60 cells (fura-2)", "type": "cell-based", "description": "as §1\nFrom the fact that HFYLPM, MFYLPM, and HFYLPm stimulate human monocytes, effects of the peptides on other leukocytes such as neutrophils were evaluated. […] The peak level of the [Ca^2+]i increase was recorded and superoxide generation was measured using cytochrome c reduction assay. […]\nA test where the three peptides on HL60 cells that had differentiated into granulocytes after having been cultured in the presence of 1.25% DMSO for 4 days was performed. […] The peak level of the [Ca^2+]i increase was recorded. […]"}, "[3]": {"tested_on": "NIH3T3 (NIH Swiss mouse embryo fibroblast)", "assay": "[Ca2+]i rise in NIH3T3 cells (fura-2)", "type": "cell-based", "settings": "FIG. 4A; 20 μM peptide", "description": "as §1, §2"}, "[4]": {"tested_on": "3Y1 (Rat embryonic fibroblast)", "assay": "[Ca2+]i rise in 3Y1 cells (fura-2)", "type": "cell-based", "settings": "FIG. 4A; 20 μM peptide", "description": "as §1, §2"}, "[5]": {"tested_on": "PC12 (rat adrenal pheochromocytoma)", "assay": "[Ca2+]i rise in PC12 cells (fura-2)", "type": "cell-based", "settings": "FIG. 4A; 20 μM peptide", "description": "as §1, §2"}, "[6]": {"tested_on": "fura-2-loaded differentiated HL60 cells", "assay": "Cross-desensitization of [Ca2+]i increase between fMLF and the peptides", "type": "cell-based, human", "settings": "HFYLPm 1 μM, HFYLPM and MFYLPM 10 μM", "description": "as §1\nAmong various agonists, fMLF is known to cause superoxide production and [Ca^2+]i increase in phagocytic cells by binding to its specific receptor (7). To check whether the novel peptides can cross-desensitize the signaling by fMLF, the effect of fMLF on the novel peptides-induced [Ca^2+]i increase and vice versa was examined. […] The results of FIG. 6 shown are from one experiment that is representative of at least three independent experiments.\nIn FIG. 6, “Hm” means HFYLPm, “HM” means HFYLPM, and “MM” means MFYLPM. The concentrations used were 1 μM (HFYLPm and fMLF) and 10 μM (HFYLPM and MFYLPM). 340 nm/380 mn ratios in fluorescence were monitored on fura-2-loaded differentiated HL60 cells before and during sequential addition of agonists at the times indicated by the arrows."}},
  "note": "No end group written: not given here.",
  "data": [
    {"substance": "Met-Phe-Tyr-Leu-Pro-Met-CONH2 (MFYLPM-NH2)", "values": [
      {"measurement": "effect on [Ca2+]i in monocytes", "setting": "human monocytes; FIG. 3A, HFYLPM 1 μM, MFYLPM 1 μM, HFYLPm 100 nM, LFMYHP 10 μM", "value": "caused intracellular Ca mobilization"},
      {"measurement": "concentration of maximal [Ca2+]i increase", "setting": "human monocytes; FIG. 3B", "value": 1, "unit": "µM"},
      {"measurement": "intracellular calcium mobilization in Jurkat cells", "setting": "[1]", "value": "did not cause a similar intracellular calcium mobilization"},
      {"measurement": "[Ca2+]i increase in HL60 cells", "setting": "[2]; FIG. 4A, HFYLPM up to 20 μM", "value": "caused a [Ca^2+]i increase"},
      {"measurement": "[Ca2+]i rise in undifferentiated HL60 cells", "setting": "[2]; FIG. 5, various concentrations", "value": "stimulated both undifferentiated and differentiated HL60 cells"},
      {"measurement": "[Ca2+]i rise in NIH3T3 cells", "setting": "[3]", "value": "no response"},
      {"measurement": "[Ca2+]i rise in 3Y1 cells", "setting": "[4]", "value": "no response"},
      {"measurement": "[Ca2+]i rise in PC12 cells", "setting": "[5]", "value": "no response"},
      {"measurement": "desensitization to subsequent stimulation with the same peptide ([Ca2+]i)", "setting": "[6]; FIG. 6", "value": "complete desensitization"},
      {"measurement": "block of the calcium response to a following saturating concentration of fMLF", "setting": "[6]; FIG. 6 below, fMLF 1 μM", "value": "completely block"},
      {"measurement": "[Ca2+]i response to the peptide following a saturating concentration of fMLF", "setting": "[6]; FIG. 6 upper, fMLF 1 μM", "value": "considerable responses"}
    ]}
  ]
}
